Several values for one entry are separate records, joined by “and”; a condition that tells them apart may be missing. Equal entries are not always repeated.
Experiments:
[1] = test system: LNCaP cells; test: PSMA-mediated internalization into LNCaP cells; assay type: cell-based; conditions: 1 h, 37° C., percentage of reference ligand ([125I]BA)KuE, n=3
Description: (§1) Competitive binding studies were determined on LNCaP cells (1.5×10^5 cells in 1 mL/well) after incubation at 4° C. for 1 h, using (((S)-1-carboxy-5-(4-([^125I]iodo)benzamido)pentyl)carbamoyl)-L-glutamic acid ([^125I]BA)KuE; 0.2 nM/well) as reference radioligand (n=3). Internalization studies of the radiolabeled ligands (1.0 nM/well) were performed on LNCaP cells (1.25×10^5 cells in 1 mL/well) at 37° C. for 1 h and accompanied by ([^125I]BA)KuE (0.2 nM/well), as reference. Data were corrected for non-specific binding and normalized to the specific internalization observed for the reference (n=3). A detailed description of the experimental procedures was previously published (Wurzer A, et al. J Nucl Med. 2020; 61: 735-742).

[2] = Lipophilicity, n-octanol/PBS (pH 7.4) distribution; assay type: physicochemical; conditions: n-octanol/PBS pH 7.4, 177Lu-labeled, n=6
Description: Approximately 1 MBq of the ^177Lu-labeled PSMA ligand was dissolved in 1 mL of a 1:1 mixture (v/v) of phosphate-buffered saline (PBS, pH 7.4) and n-octanol (n=6). After vigorous mixing of the suspension for 3 min, the vial was centrifuged at 15000×g for 3 min and 100 μL aliquots of both layers were measured in a γ-counter. Finally, the ratio of the radioactivity detected in the n-octanol sample and the PBS buffer was calculated and expressed as distribution ratio log D7.4.

[3] = target: T1, human serum albumin (Homo sapiens, UniProt P02768); test: Binding to human serum albumin by albumin mediated size exclusion chromatography (AMSEC); assay type: in vitro ADME; conditions: size exclusion chromatography with HSA in the mobile phase, 177Lu-labeled
T1 construct: purchased Biowest, Nuaillé, France
Description: Binding of ^177Lu-labeled ligands to HSA was assessed by albumin mediated size exclusion chromatography (AMSEC). A gel filtration size exclusion column (Superdex 75 Increase 10/300 GL, GE Healthcare, Uppsala, Sweden) was used with HSA buffer at physiological concentration (700 μM, Biowest, Nuaillé, France) as mobile phase (constant flow rate of 0.8 mL/min at room temperature). For calibration purposes, a commercially available set of proteins (GE Healthcare, Buckinghamshire, UK) was used. Under these chromatographic conditions, the retention time of a radioligand (1.0 MBq, 10-20 GBq/μmol) depends on the extent of HSA/ligand interactions and thus, by means of the calibration with the aforementioned set of proteins, can be translated into an AMW (expressed in kDa) as a parameter allowing to quantify the extent of HSA binding. The detection window ranges between 2.3 kDa ([^18F]Fluoride; no HSA interaction) and 70.2 kDa (experimental molecular weight of HSA; maximum HSA interaction).

[4] = target: T2, PSMA (Homo sapiens, UniProt Q04609); test: Competitive binding studies on LNCaP cells vs ([125I]BA)KuE (affinity, IC50); conditions: 1 h, 4° C., natLu complexes
T2 construct: endogenous in cells; host or cells: LNCaP cells
Description: as §1

[5] = test system: LNCaP tumor-bearing male CB-17 SCID mice; test: Ex vivo biodistribution in LNCaP tumor-bearing CB-17 SCID mice; conditions: 24 h p.i., LNCaP tumor
Description: All animal experiments were conducted in accordance with general animal welfare regulations in Germany (German animal protection act, as amended on 18 May 2018, Art. 141 G v. 29 Mar. 2017 I 626, approval no. 55.2-1-54-2532-71-13) and the institutional guidelines for the care and use of animals. LNCaP tumor xenografts were established in 6-8 weeks old male CB-17 SCID mice as described previously (Wurzer A, et al. J Nucl Med. 2020; 61: 735-742). Biodistribution Studies. The ^177Ludabeled PSMA inhibitors (2-5 MBq; 0.1 nmol) were injected under isoflurane anesthesia into the tail vein of LNCaP tumor-bearing male CB-17 SCID mice that were sacrificed 24 h post injection (p.i.) (n=4-5). Selected organs were removed, weighed, and measured in a counter. All rhPSMA ligands were evaluated in mice during the same time period (Q1/2020), whereas ^177Ludabeled PSMA-617 and PSMA I&T (Wirtz M, et al. EJNMMI Res. 2018; 8: 84) were assessed previously using the identical cell line, mouse model and experimental procedure.

T1 sequence (P02768 25-609): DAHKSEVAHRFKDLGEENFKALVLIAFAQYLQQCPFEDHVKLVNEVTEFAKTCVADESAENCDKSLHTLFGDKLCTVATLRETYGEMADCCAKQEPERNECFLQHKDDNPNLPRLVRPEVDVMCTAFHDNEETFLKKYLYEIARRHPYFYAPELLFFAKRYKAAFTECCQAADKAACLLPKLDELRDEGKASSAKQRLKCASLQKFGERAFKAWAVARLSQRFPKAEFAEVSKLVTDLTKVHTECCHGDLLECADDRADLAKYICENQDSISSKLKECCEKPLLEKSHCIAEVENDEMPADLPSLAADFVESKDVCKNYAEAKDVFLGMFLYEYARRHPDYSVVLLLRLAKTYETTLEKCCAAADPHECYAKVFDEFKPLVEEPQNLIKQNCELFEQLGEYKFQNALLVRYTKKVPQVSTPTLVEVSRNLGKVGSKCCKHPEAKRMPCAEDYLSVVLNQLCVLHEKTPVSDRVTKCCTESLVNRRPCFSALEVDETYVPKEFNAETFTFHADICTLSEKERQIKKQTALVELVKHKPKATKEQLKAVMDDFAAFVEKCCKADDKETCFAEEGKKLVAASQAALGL
T2 sequence (Q04609 whole entry): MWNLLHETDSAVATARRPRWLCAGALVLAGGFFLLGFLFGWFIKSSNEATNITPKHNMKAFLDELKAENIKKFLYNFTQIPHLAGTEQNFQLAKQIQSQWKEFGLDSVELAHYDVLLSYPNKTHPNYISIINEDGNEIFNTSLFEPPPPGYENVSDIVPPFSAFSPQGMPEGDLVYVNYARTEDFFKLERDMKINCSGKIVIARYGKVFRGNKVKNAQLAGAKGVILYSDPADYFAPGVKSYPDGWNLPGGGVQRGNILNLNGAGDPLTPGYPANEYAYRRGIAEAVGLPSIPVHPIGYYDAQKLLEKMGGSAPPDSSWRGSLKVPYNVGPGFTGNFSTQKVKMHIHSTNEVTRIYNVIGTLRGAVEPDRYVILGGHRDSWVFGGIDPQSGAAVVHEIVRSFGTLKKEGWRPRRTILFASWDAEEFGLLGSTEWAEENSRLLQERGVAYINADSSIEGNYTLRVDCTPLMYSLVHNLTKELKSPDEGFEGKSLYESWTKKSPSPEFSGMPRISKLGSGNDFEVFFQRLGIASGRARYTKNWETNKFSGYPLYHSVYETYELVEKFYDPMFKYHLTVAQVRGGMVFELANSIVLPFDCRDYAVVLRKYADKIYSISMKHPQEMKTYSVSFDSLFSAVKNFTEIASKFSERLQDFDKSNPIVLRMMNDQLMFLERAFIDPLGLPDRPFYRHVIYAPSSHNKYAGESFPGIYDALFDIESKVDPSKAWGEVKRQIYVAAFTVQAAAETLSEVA

| Structure (SMILES) | Internalization [% IBA-KuE] [1] | logD7.4 [2] | MWapp [kDa] (apparent molecular weight, AMW; HSA binding) [3] | IC50 ([4]; n=3) [nM] | Tumor uptake [5] [% ID/g] | IC50 ([4]; n=3, listed as [^natLu]PSMA-617) [nM] |
| --- | --- | --- | --- | --- | --- | --- |
| CC(C)(C)[Si](F)(c1ccc(C(=O)NC[C@@H](NC(=O)CC[C@H](C(=O)O)N2CCN(CC(=O)[O-])CCN(CC(=O)[O-])CCN(CC(=O)[O-])CC2)C(=O)N[C@H](CCCCNC(=O)CCC(=O)NCCC[C@@H](NC(=O)CC[C@H](NC(=O)N[C@@H](CCC(=O)O)C(=O)O)C(=O)O)C(=O)O)C(=O)O)cc1)C(C)(C)C.[Lu+3] [[^177Lu, ^19F]rhPSMA-7.1] | 137±6 % IBA-KuE and 137.4 ± 5.8 % IBA-KuE | −4.27 ± 0.24 | 26.3 | 3.11 ± 0.64 | – | – |
| CC(C)(C)[Si](F)(c1ccc(C(=O)NC[C@H](NC(=O)CN2CCN(CC(=O)[O-])CCN(CC(=O)[O-])CCN(CC(=O)[O-])CC2)C(=O)N[C@H](CCCCNC(=O)CCC(=O)NCCC[C@@H](NC(=O)CC[C@H](NC(=O)N[C@@H](CCC(=O)O)C(=O)O)C(=O)O)C(=O)O)C(=O)O)cc1)C(C)(C)C.[Lu+3] [[^177Lu, ^19F]rhPSMA-10.2] | 205.6 ± 8.3 % IBA-KuE | −3.8 and −3.83 ± 0.10 | 21.8 | 3.61 ± 0.59 | 10.5±3.3 | – |
| O=C([O-])CN1CCN(CC(=O)[O-])CCN(CC(=O)NCC2CCC(C(=O)N[C@@H](Cc3ccc4ccccc4c3)C(=O)NCCCC[C@H](NC(=O)N[C@@H](CCC(=O)O)C(=O)O)C(=O)O)CC2)CCN(CC(=O)[O-])CC1.[177Lu+3] (stereo partly drawn) [[^177Lu]PSMA-617] | 203±10 % IBA-KuE and 203.2 ± 10.1 % IBA-KuE | −4.1 ± 0.1 | 13.7 | 3.27 ± 0.19 | – | 3.3 ± 0.2 |
| CC(C)(C)[Si](F)(c1ccc(C(=O)NC[C@H](NC(=O)CC[C@@H](C(=O)O)N2CCN(CC(=O)[O-])CCN(CC(=O)[O-])CCN(CC(=O)[O-])CC2)C(=O)N[C@H](CCCCNC(=O)CCC(=O)NCCC[C@@H](NC(=O)CC[C@H](NC(=O)N[C@@H](CCC(=O)O)C(=O)O)C(=O)O)C(=O)O)C(=O)O)cc1)C(C)(C)C.[Lu+3] [[^177Lu, ^19F]rhPSMA-7.4] | 190.4 ± 10.5 % IBA-KuE | −4.10 ± 0.14 | 35.7 | 3.06 ± 1.51 | – | – |

From patent US20240066155A1, “DUAL MODE RADIOTRACER AND -THERAPEUTICS” (priority 2021, published 2024)
